# Measured values from patent US20060263802A1 (priority 2003, published 2006).
# Key:
# Assay type in all cases: binding
# [1] = tested on: human monoclonal antibody CRJB
# [2] = tested on: human monoclonal antibody CR57
# [3] = tested on: human monoclonal antibody CRJA
# [4] = tested on: human monoclonal antibody CR57; remark: listed apart in the source
# [5] = tested on: human monoclonal antibody CRJA; remark: listed apart in the source
# [6] = tested on: human monoclonal antibody CRJB; remark: listed apart in the source
Sequence,Binding of CRJB (10 μg/ml) to looped/cyclic peptide (PEPSCAN-ELISA signal) [1],Binding of CR57 to linear peptide (PEPSCAN-ELISA signal) [2],Binding of CRJA to linear peptide (PEPSCAN-ELISA signal) [3],Binding of CR57 (10 μg/ml) to looped/cyclic peptide (PEPSCAN-ELISA signal) [4],Binding of CRJA (10 μg/ml) to looped/cyclic peptide (PEPSCAN-ELISA signal) [5],Binding of CRJB to linear peptide (PEPSCAN-ELISA signal) [6],Binding of CRJB (10 μg/ml) to looped/cyclic peptide (PEPSCAN-ELISA) [1],Binding of CR57 (10 μg/ml) to looped/cyclic peptide (PEPSCAN-ELISA) [4],Binding of CRJA (10 μg/ml) to looped/cyclic peptide (PEPSCAN-ELISA) [5],binding of antibody CR57 to linear peptide (PEPSCAN OD) [2],Binding of CRJB to looped/cyclic peptide (PEPSCAN-ELISA signal) [1],Binding of human monoclonal antibody CR57 to linear peptide (PEPSCAN-ELISA signal) [2],Binding of human monoclonal antibody CRJA to linear peptide (PEPSCAN-ELISA signal) [3],Binding of CR57 to looped/cyclic peptide (PEPSCAN-ELISA signal) [4],Binding of CRJA to looped/cyclic peptide (PEPSCAN-ELISA signal) [5],Binding of human monoclonal antibody CRJB to linear peptide (PEPSCAN-ELISA signal) [6]
YTILDKLGPWSPIDI,73,48,93,75,91,114,,,,,,,,,,
ESLHNPYPDYRWLRT,92,92,80,123,106,132,,,,,,,,,,
KRASKGSETCGFVDE,,92,97,,,106,85,120,101,,,,,,,
CKLKLCGVLGLRLMD,,410,88,,,111,74,64,91,bound,,,,,,
NNLVVEDEGCTNLSG,75,72,93,86,88,99,,,,,,,,,,
LPSKGCLRVGGRCHP,,77,58,,,119,85,80,52,,,,,,,
FKDGDEAEDFVEVHL,,,,,,,,,,,80,65,85,106,97,76
KREECLDALESIMTT,,102,83,,,113,64,137,100,,,,,,,
RKHFRPTPDACRAAY,79,64,57,72,41,107,,,,,,,,,,
DEIEHLVVEELVRKR,,94,90,,,123,106,113,106,,,,,,,
CTNLSGFSYMELKVG,96,47,84,70,79,110,,,,,,,,,,
SCDIFTNSRGKRASK,79,44,89,1,57,111,,,,,,,,,,
ESSVIPLVHPLADPS,,104,121,,,138,92,108,91,,,,,,,
DEGCTNLSGFSYMEL,60,1,54,1,57,23,,,,,,,,,,
FVGYVTTTFKRKHFR,82,70,79,117,102,111,,,,,,,,,,
MNGFTCTGVVTEAEN,118,69,87,85,78,99,,,,,,,,,,
ALESIMTTKSVSFRR,,97,107,,,132,111,136,108,,,,,,,
AAYNWKMAGDPRYEE,90,68,78,104,78,106,,,,,,,,,,
KSVSFRRLSHLRKLV,,108,111,,,124,97,114,88,,,,,,,
DEAEDFVEVHLPDVH,,,,,,,,,,,104,68,105,89,98,136
VEDEGCTNLSGFSYM,78,74,82,83,86,103,,,,,,,,,,
VIISPSVADLDPYDR,82,59,47,90,100,98,,,,,,,,,,
YKSVRTWNEILPSKG,,66,113,,,137,94,117,132,,,,,,,
SLVIISPSVADLDPY,85,68,88,98,87,105,,,,,,,,,,
MDGTWVAMQTSNETK,,97,85,,,97,82,114,90,,,,,,,
TGVVTEAENYTNFVG,69,85,86,92,96,110,,,,,,,,,,
VFPSGKCSGVAVSST,75,74,68,79,55,114,,,,,,,,,,
FVDERGLYKSLKGAC,,86,116,,,121,79,97,92,,,,,,,
RGKRASKGSETCGFV,,75,87,,,104,68,101,102,,,,,,,
